Common to all, as to assay type: in vivo
Assay [1] concerns Aphis gossypii Glover nymphs. Briefly: Joint toxicity of I-72 + nitenpyram, Example 67, Table 67. The following applies: A = compound I-72, B = nitenpyram, cotton leaf spraying, 48 hours, read-out: LC50. On the procedure:
(§1) Test target: Aphis gossypii Glover nymphs, a sensitive strain reared indoors.
(§2) Preparation of the pesticide solution: according to different test requirements, the test samples were accurately weighed respectively with an electronic analytical balance. The technical pesticides were dissolved in acetone, and then diluted with 0.1% Tween 80 water into a series of pesticide solutions with a certain concentration gradient according to the experimental design dosage.
(§3) Experimental method: first, cotton leaves with uniform and consistent Aphis gossypii were selected, with about 30-40 insects on each leaf. Then, they were evenly sprayed with the pesticide solution in the order from low dosage to high dosage according to the experimental design, with 1.5 mL for each leaf and 3 replicates for each treatment. In addition, a blank control was set up.
(§4) The treated test materials were placed in an observation room, and the temperature, humidity and illumination of the observation room could be adjusted as needed. The number of dead and live insects was investigated 48 hours later. […] Then, the co-toxicity coefficient of each ratio was calculated using the Sun Y-P method to evaluate the mixing effect (the same as in Example 1).

Another assay relates to adult Phyllotreta spp. Briefly: Joint toxicity of I-72 + organophosphorus insecticides, cabbage seedling spraying, Example 19, Table 19. The following applies: adults, cabbage seedling spraying, 72 h; A = compound I-72, B = acephate; read-out: LC50. The method, then: Test target: adult Phyllotreta spp., a sensitive strain reared indoors.
as §2
Experimental method: first, fresh cabbage seedlings cultivated in the greenhouse were selected and evenly sprayed with the pesticide solution in the order from low dosage to high dosage according to the experimental design. After natural air-drying in the shade, they were covered with a glass cover, and uniform and healthy test insects were introduced, with 10 insects for each treatment and 3 replicates for each treatment. In addition, a blank control was set up.
The treated test materials were placed in an observation room, and the temperature, humidity and illumination of the observation room could be adjusted as needed. The number of dead and live insects was investigated 72 hours later. The corrected mortality rate was calculated using the Abbott's formula, and statistical analysis was performed with the DPS data processing software to obtain the toxicity regression equation, LC50 value and 95% confidence limit of each single test pesticide and each mixture of different ratios. Then, the co-toxicity coefficient of each ratio was calculated using the Sun Y-P method to evaluate the mixing effect (the same as in Example 1).

Assay [2] has as its system Aphis gossypii Glover nymphs. Nature of the assay: Joint toxicity of I-72 + flonicamid, Example 74, Table 74. Conditions: Aphis gossypii; A = compound I-72, B = flonicamid; cotton leaf spraying; 48 hours; read-out: LC50. On the procedure: as §1, §2, §3, §4
In assay [3] the test system is second-instar larvae of Meloidogyne incognita. Nature of the assay: In vitro joint toxicity of I-72 + fluopyram, 24-well plate, Example 32, Table 32. The following applies: A = I-72, B = fluopyram, 24-well plate, 25° C., 48 hours, read-out: LC50. On the procedure: Test target: second-instar larvae of Meloidogyne incognita, a sensitive strain reared in a greenhouse.
as §2
Experimental method: the prepared pesticide solutions were added to a 24-well plate in the order from low dosage to high dosage according to the experimental design. In each well of each treatment, 50 nematodes were placed. Each drug had 5 concentrations set, with 3 replicates. After the treatment, the 24-well plate was placed in a constant temperature incubator at 25° C. In addition, a blank control group was set up. The number of dead and live insects was investigated 48 hours later. […] Then, the co-toxicity coefficient of each ratio was calculated using the Sun Y-P method to evaluate the mixing effect (the same as in Example 1).

The test system of assay [4] is Aphis gossypii Glover nymphs. Briefly: Joint toxicity of I-72 + spiropidion, Example 28, Table 28. The following applies: Aphis gossypii; A = compound I-72, B = spiropidion; cotton leaf spraying; 48 hours; read-out: LC50. The method, then:
as §1, §2, §3, §4

The subject of assay [5] is adult Tetranychus cinnabarinus (Boisduval). Briefly: Joint toxicity of I-72 + pyridaben, Example 84, Table 84. The following applies: A = compound I72, B = pyridaben, potted-seedling spraying, 72 hours, read-out: LC50. The method, then: (§5) Test target: adult Tetranychus cinnabarinus (Boisduval), a sensitive strain reared indoors.
as §2
(§6) Experimental method: the activity of the mixture against the adult Tetranychus cinnabarinus (Boisduval) was determined by adopting the potted-seedling spraying method. First, the adult Tetranychus cinnabarinus of uniform size were transferred onto the leaves of kidney bean seedlings at the stage when the first pair of true leaves was fully expanded. After the adult mites had stabilized, the base number was counted. Then, the uniform spraying was performed with the pesticide solution in the order from low to high dose according to the experimental design, with 1.5 mL for each seedling and 3 replicates for each treatment. […]
(§7) The treated test materials were placed in an observation room, and the temperature, humidity and illumination of the observation room could be adjusted as needed. […] Then, the co-toxicity coefficient of each ratio was calculated using the Sun Y-P method to evaluate the mixing effect, as in Example 1.

Assay [6] shares this test system. Nature of the assay: Joint toxicity of I-72 + fenpropathrin, Example 39, Table 39. The following applies: A = compound I-72, B = fenpropathrin, potted-seedling spraying, 72 hours, read-out: LC50. The method, then: as §5, §2, §6, §7
The test system of assay [7] is adult Bemisia tabaci (Gennadius). Briefly: Joint toxicity of I-72 + emamectin benzoate, seedling spraying, Example 12, Table 12. Conditions: Bemisia tabaci; adults, kidney bean seedling spraying, 72 h; A = compound I-72, B = emamectin benzoate; read-out: LC50. An excerpt:
Test subject: adult Bemisia tabaci (Gennadius), a sensitive strain reared indoors.
Experimental method: the spraying method was adopted. The kidney bean seedlings cultivated in the greenhouse were selected and evenly sprayed with the pesticide solution in the order from low dosage to high dosage according to the experimental design. After natural air-drying in the shade, a self-made glass cover was put on, and the test insects were introduced, with 20-30 insects for each treatment and 3 replicates. In addition, a blank control was set up. The number of dead and live insects was investigated 72 hours later. The corrected mortality rate was calculated using the Abbott's formula, and the DPS data processing software was used for statistical analysis to calculate the toxicities (LC50 values) of the single test pesticides and the mixtures under the test ratios.
The test conditions, the preparation of the pesticide solution and the evaluation method were the same as those in Example 1.

Molecules are shown by their SMILES.

As usually defined, the LC50 is the concentration that kills 50% of the test population.

Regarding `CN(C(=O)c1ccc2c(c1)OC(F)(F)O2)c1cccc(C(=O)Nc2c(Br)cc(C(F)(C(F)(F)F)C(F)(F)F)cc2OC(F)F)c1F` [Compound I-72], the LC50 in assay [1] is 3 µg/mL; in the assay with adult Phyllotreta spp., 3.01 µg/mL; in assay [2] it was 2.81 µg/mL; in assay [3], 249 µg/mL; in assay [4], 3.19 µg/mL; in assay [5], 33.5 µg/mL. The median lethal concentration (LC50) in assay [6] was 34.1 µg/mL; in assay [7] it was 2.97 µg/mL.
